Assay results as given in PubChem BioAssay AID1963842 (Molecular Pharmacology Branch, DTP, NCI, 2024).

Tested on: 677734-321-R-J1-PDC complex spheroid viability
Experiment: Anticancer human tumor 677734-321-R-J1-PDC patient-derived soft tissue sarcoma cell line growth inhibition [POLQ]
Details: for IC50: curve of first compound; for viability, T/C: stronger effect = lower value
In short: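 Growth inhibition in 3D: complex spheroids (tumor PDC, HUVEC, MSC) treated with POLQ inhibitor combinations; where Cmax unknown, highest tested concentration 10 microM, except SN-38 at 1 microM.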

[1] = second compound 0.0316 µM, first compound 0.0316 µM
[2] = second compound 0.0316 µM, first compound 0.1 µM
[3] = second compound 0.0316 µM, first compound 0.316 µM
[4] = second compound 0.0316 µM, first compound 1 µM
[5] = second compound 0.0316 µM, first compound 3.16 µM
[6] = second compound 0.0316 µM, first compound 10 µM
[7] = second compound 0.1 µM, first compound 0.0316 µM
[8] = second compound 0.1 µM, first compound 0.1 µM
[9] = second compound 0.1 µM, first compound 0.316 µM
[10] = second compound 0.1 µM, first compound 1 µM
[11] = second compound 0.1 µM, first compound 3.16 µM
[12] = second compound 0.1 µM, first compound 10 µM
[13] = second compound 0.316 µM, first compound 0.0316 µM
[14] = second compound 0.316 µM, first compound 0.1 µM
[15] = second compound 0.316 µM, first compound 0.316 µM
[16] = second compound 0.316 µM, first compound 1 µM
[17] = second compound 0.316 µM, first compound 3.16 µM
[18] = second compound 0.316 µM, first compound 10 µM
[19] = second compound 1 µM, first compound 0.0316 µM
[20] = second compound 1 µM, first compound 0.1 µM
[21] = second compound 1 µM, first compound 0.316 µM
[22] = second compound 1 µM, first compound 1 µM
[23] = second compound 1 µM, first compound 3.16 µM
[24] = second compound 1 µM, first compound 10 µM
[25] = second compound 3.16 µM, first compound 0.0316 µM
[26] = second compound 3.16 µM, first compound 0.1 µM
[27] = second compound 3.16 µM, first compound 0.316 µM
[28] = second compound 3.16 µM, first compound 1 µM
[29] = second compound 3.16 µM, first compound 3.16 µM
[30] = second compound 3.16 µM, first compound 10 µM
[31] = second compound 10 µM, first compound 0.0316 µM
[32] = second compound 10 µM, first compound 0.1 µM
[33] = second compound 10 µM, first compound 0.316 µM
[34] = second compound 10 µM, first compound 1 µM
[35] = second compound 10 µM, first compound 3.16 µM
[36] = second compound 10 µM, first compound 10 µM
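Further: spheroids exposed to compounds for one week.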
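Wherever viability, T/C is given: 100% = vehicle DMSO treated spheroids.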

CCc1cc2c(N3CCc4c(cc(Cn5ccnc5)cc4-c4cn(C)nc4C(F)(F)F)C3=O)cc(C)nc2c(OC)n1 + Nc1ccc(C#CCN(C(=O)Cc2ncc(C(F)(F)F)cc2C(F)(F)F)c2ccc(F)cc2)nn1 gave an IC50 (second compound 0.0316 µM) of over 10 µM, an IC50 (second compound 0.1 µM) of 6.09 µM and an IC50 (second compound 0.316 µM) of 7.57 µM. The IC50 (second compound 1 µM) was 5.9 µM, the IC50 (second compound 3.16 µM) was 5.71 µM and the IC50 (second compound 10 µM) was 4.5 µM. It also gave a viability, T/C [1] of 100%, a viability, T/C [2] of 101% and a viability, T/C [3] of 85%. The viability, T/C [4] was 76.3%, the viability, T/C [5] was 63.8% and the viability, T/C [6] was 61.8%. The viability, T/C [7] was 102%, the viability, T/C [8] was 94.2% and the viability, T/C [9] was 77.6%. For the same molecule, the viability, T/C [10] was 78.5%, the viability, T/C [11] was 53.4% and the viability, T/C [12] was 45.1%. The viability, T/C [13] was 104%, the viability, T/C [14] was 93.6% and the viability, T/C [15] was 96.4%. For the same molecule, the viability, T/C [16] was 91.2%, the viability, T/C [17] was 73.2% and the viability, T/C [18] was 42.1%. It also gave a viability, T/C [19] of 116%, a viability, T/C [20] of 88% and a viability, T/C [21] of 100%. The viability, T/C [22] was 90.1%, the viability, T/C [23] was 60% and the viability, T/C [24] was 39.1%. It also gave a viability, T/C [25] of 107%, a viability, T/C [26] of 97.3% and a viability, T/C [27] of 96.6%. It also gave a viability, T/C [28] of 95.2%, a viability, T/C [29] of 65% and a viability, T/C [30] of 35.6%. For the same molecule, the viability, T/C [31] was 110%, the viability, T/C [32] was 88.5% and the viability, T/C [33] was 91.4%. It also gave a viability, T/C [34] of 86.5%, a viability, T/C [35] of 55.5% and a viability, T/C [36] of 29.8%.
CCc1cc2c(N3CCc4c(cc(Cn5ccnc5)cc4-c4cn(C)nc4C(F)(F)F)C3=O)ccnc2c(OC)n1 + Nc1ccc(C#CCN(C(=O)Cc2ncc(C(F)(F)F)cc2C(F)(F)F)c2ccc(F)cc2)nn1 was tested, and the IC50 (second compound 0.0316 µM) was over 10 µM, the IC50 (second compound 0.1 µM) was 4.78 µM and the IC50 (second compound 0.316 µM) was 7.55 µM. For the same molecule, the IC50 (second compound 1 µM) was 8.72 µM, the IC50 (second compound 3.16 µM) was over 10 µM and the IC50 (second compound 10 µM) was 5.44 µM. It also gave a viability, T/C [1] of 89.5%, a viability, T/C [2] of 124% and a viability, T/C [3] of 110%. For the same molecule, the viability, T/C [4] was 70.7%, the viability, T/C [5] was 63.5% and the viability, T/C [6] was 38.4%. It also gave a viability, T/C [7] of 88.5%, a viability, T/C [8] of 111% and a viability, T/C [9] of 101%. For the same molecule, the viability, T/C [10] was 87.6%, the viability, T/C [11] was 54.9% and the viability, T/C [12] was 41.8%. The viability, T/C [13] was 120%, the viability, T/C [14] was 103% and the viability, T/C [15] was 87.1%. The viability, T/C [16] was 88.9%, the viability, T/C [17] was 86.1% and the viability, T/C [18] was 38.1%. The viability, T/C [19] was 127%, the viability, T/C [20] was 109% and the viability, T/C [21] was 100%. The viability, T/C [22] was 79.1%, the viability, T/C [23] was 63.9% and the viability, T/C [24] was 48%. The viability, T/C [25] was 95.7%, the viability, T/C [26] was 108% and the viability, T/C [27] was 113%. It also gave a viability, T/C [28] of 79.8%, a viability, T/C [29] of 64.3% and a viability, T/C [30] of 50.9%. For the same molecule, the viability, T/C [31] was 102%, the viability, T/C [32] was 83.9% and the viability, T/C [33] was 83.7%. It also gave a viability, T/C [34] of 90.5%, a viability, T/C [35] of 62.6% and a viability, T/C [36] of 35.9%.
In the case of COc1cc2cc(C(=O)CCC(=O)O)sc2cc1OC + Nc1ccc(C#CCN(C(=O)Cc2ncc(C(F)(F)F)cc2C(F)(F)F)c2ccc(F)cc2)nn1, the IC50 (second compound 0.0316 µM) is reported as over 10 µM, the IC50 (second compound 0.1 µM) is reported as over 10 µM and the IC50 (second compound 0.316 µM) is reported as over 10 µM. For the same molecule, the IC50 (second compound 1 µM) was over 10 µM, the IC50 (second compound 3.16 µM) was over 10 µM and the IC50 (second compound 10 µM) was over 10 µM. The viability, T/C [1] was 105%, the viability, T/C [2] was 105% and the viability, T/C [3] was 103%. It also gave a viability, T/C [4] of 93.3%, a viability, T/C [5] of 108% and a viability, T/C [6] of 104%. For the same molecule, the viability, T/C [7] was 103%, the viability, T/C [8] was 98.5% and the viability, T/C [9] was 100%. For the same molecule, the viability, T/C [10] was 98.5%, the viability, T/C [11] was 115% and the viability, T/C [12] was 110%. It also gave a viability, T/C [13] of 104%, a viability, T/C [14] of 102% and a viability, T/C [15] of 103%. The viability, T/C [16] was 108%, the viability, T/C [17] was 105% and the viability, T/C [18] was 116%. It also gave a viability, T/C [19] of 105%, a viability, T/C [20] of 91.4% and a viability, T/C [21] of 105%. It also gave a viability, T/C [22] of 104%, a viability, T/C [23] of 95.2% and a viability, T/C [24] of 109%. The viability, T/C [25] was 97%, the viability, T/C [26] was 98.1% and the viability, T/C [27] was 113%. The viability, T/C [28] was 109%, the viability, T/C [29] was 109% and the viability, T/C [30] was 112%. For the same molecule, the viability, T/C [31] was 104%, the viability, T/C [32] was 110% and the viability, T/C [33] was 94.6%. It also gave a viability, T/C [34] of 95%, a viability, T/C [35] of 107% and a viability, T/C [36] of 86.3%.
Work on COc1ccc([C@@H](O)c2cc(-c3ncnc4cc(N5CCOCC5)ccc34)c(F)cc2Cl)nn1 + Nc1ccc(C#CCN(C(=O)Cc2ncc(C(F)(F)F)cc2C(F)(F)F)c2ccc(F)cc2)nn1 yielded an IC50 (second compound 0.0316 µM) of 7.37 µM, an IC50 (second compound 0.1 µM) of 8.81 µM and an IC50 (second compound 0.316 µM) of 9.17 µM. For the same molecule, the IC50 (second compound 1 µM) was 7.89 µM, the IC50 (second compound 3.16 µM) was 6.66 µM and the IC50 (second compound 10 µM) was over 10 µM. For the same molecule, the viability, T/C [1] was 89.5%, the viability, T/C [2] was 96.2% and the viability, T/C [3] was 76.8%. It also gave a viability, T/C [4] of 88.4%, a viability, T/C [5] of 72.5% and a viability, T/C [6] of 41.7%. For the same molecule, the viability, T/C [7] was 90.2%, the viability, T/C [8] was 106% and the viability, T/C [9] was 96.2%. It also gave a viability, T/C [10] of 90.8%, a viability, T/C [11] of 67.4% and a viability, T/C [12] of 47.8%. For the same molecule, the viability, T/C [13] was 105%, the viability, T/C [14] was 93.1% and the viability, T/C [15] was 80.9%. The viability, T/C [16] was 95.4%, the viability, T/C [17] was 71.5% and the viability, T/C [18] was 47.6%. The viability, T/C [19] was 108%, the viability, T/C [20] was 93.9% and the viability, T/C [21] was 94%. The viability, T/C [22] was 90.4%, the viability, T/C [23] was 73.8% and the viability, T/C [24] was 43.2%. The viability, T/C [25] was 103%, the viability, T/C [26] was 92.6% and the viability, T/C [27] was 82.8%. For the same molecule, the viability, T/C [28] was 75.5%, the viability, T/C [29] was 61.1% and the viability, T/C [30] was 43.4%. It also gave a viability, T/C [31] of 102%, a viability, T/C [32] of 99.7% and a viability, T/C [33] of 77.7%. It also gave a viability, T/C [34] of 73.7%, a viability, T/C [35] of 72.9% and a viability, T/C [36] of 45.8%.
